Results from patent US6093805A, “Glycoside compounds and methods of synthesis” (The Regents of the University of Michigan, priority 1997, dated 2000).
Converted amounts (≈) assume the structure as drawn. Counter-ions that a name gives are not always drawn. One block for each molecule: values may come before it.

Key:
[1] = tested on: cancer cells; conditions: cited from earlier work
[2] = in vivo; cited from earlier work
[3] = tested on: K-562; test: Tumor cell growth inhibition in K-562 cell culture (FIG. 8); assay type: cell-based; conditions: K-562 culture fluid; 1/10 (0.4 mg/mL), 1/80 (0.03 mg/mL), 1/320 (0.007 mg/mL); plot FIG. 8
[4] = tested on: cancer diseases of several phenotypes; conditions: cited from earlier work
[5] = tested on: cancer cells of representative phenotypes; conditions: cited from earlier work
[6] = Solubility in 14 mM phosphate buffered saline pH 7.4 at 23° C.; assay type: physicochemical; conditions: aqueous buffer, 14 mM PBS pH 7.4, OD at 250 nm of supernatant, read-out: maximum solubility
Protocol: The solubility of the two acetaminophen derivatives (Examples 9 and 10) in 14 mM phosphate buffered saline (PBS) pH 7.4 was determined and compared with the solubility of non-derivatized acetaminophen. It was determined that the two acetaminophen derivatives had much greater solubility than that of the non-derivatized acetaminophen. All work was performed at 23° C.
Method: The solubility of both derivatives was determined by continual addition, with agitation, of the derivatives to a known amount of buffer. When a significant precipitate was observed, the respective solutions were centrifuged and the optical density at 250 nm of the resulting clear supernatant was determined. From the optical density of the supernatant, the concentration was obtained by comparison with non-derivatized acetaminophen standard curves.

- solubility [6]: 60 mg/mL (≈ 136 mM)
Structure (SMILES): CC(=O)Nc1ccc(O[C@@H]2C=C[C@H](O[C@H]3O[C@H](CO)[C@@H](O)[C@H](O)[C@H]3O)[C@@H](CO)O2)cc1 [Example 9, p-Acetoamidophenyl 4-O-(α-D-glucopyranosyl)-2,3-dideoxy-α-D-erythro-hex-2-enopyranoside]

- solubility [6]: 55 mg/mL (≈ 125 mM)
Structure (SMILES): CC(=O)Nc1ccc(O[C@@H]2C=C[C@H](O[C@@H]3O[C@H](CO)[C@H](O)[C@H](O)[C@H]3O)[C@@H](CO)O2)cc1 [Example 10, p-Acetoamidophenyl 4-O-(β-D-galactopyranosyl)-2,3-dideoxy-O-D-erythro-hex-2-enopyranoside]

- solubility [6]: 7 mg/mL (≈ 46.3 mM)
Structure (SMILES): CC(=O)Nc1ccc(O)cc1 [acetaminophen, 4-acetamidophenol]

The next lines start with the molecule.

Structure (SMILES): CC(C)CCC[C@@H](C)[C@H]1CC[C@H]2[C@@H]3[C@@H](OC(=O)CCC(=O)O)C=C4C[C@@H](OC(=O)CCC(=O)O)CC[C@]4(C)[C@H]3CC[C@]12C [7β-OHC bishemisuccinate colamine salt]
- inhibition of proliferative phase growth of cancer cells ([1]; clinical studies, low parenteral dosage): selectively inhibit the proliferative phase growth of cancer cells
- side effects ([1]; in vivo): without substantial side effects
- normalizing effects [2]: drive-enhancing (stimulating) activity as well as a tranquilizing activity

Structure (SMILES): CC(C)CCC[C@@H](C)[C@H]1CC[C@H]2[C@@H]3[C@@H](O)C=C4C[C@@H](O)CC[C@]4(C)[C@H]3CC[C@]12C [7β-hydroxycholesterol, 5-cholestene-3β,7β-diol]
- tumor cell growth inhibition [3]: tumor cell growth inhibition
- side effects in treatment of cancer diseases ([4]; in vivo): free of side effects
- treatment of cancer diseases ([4]; several phenotypes): successfully employed
- effect on healthy cells [5]: not affecting healthy cells
- elimination of cancer cells ([5]; substantially non-toxic dosage): effective at substantially non-toxic dosage and capable of eliminating cancer cells of representative phenotypes
